Measurements from PMC8831520, “Small molecule SWELL1 complex induction improves glycemic control and nonalcoholic fatty liver disease in murine Type 2 diabetes” (Nature Communications, 2022).

Experiments:
[1] = Tolerability of chronic i.p. dosing; format: in vivo, mouse; conditions: daily i.p. injections for up to 8 weeks
Procedure: (§1) All compounds were dissolved in Kolliphor® EL (Sigma, #C5135).

T2D KKAy mice = experiment: Euglycemic hyperinsulinemic clamp with tracers; format: in vivo, mouse
Procedure: Sterile silicone catheters (Dow-Corning) were placed into the jugular vein of mice under isoflurane anesthesia. The placed catheter was flushed with 200 U/mL heparin in saline and the free end of the catheter was directed subcutaneously via a blunted 14-gauge sterile needle and connected to a small tubing device that exited through the back of the animal. […] Hyperinsulinemic euglycemic clamps were performed on day 8 post-surgery on unrestrained, conscious mice as described elsewhere[82],[83], with some modifications. Mice were fasted for 6 h at which time insulin and glucose infusion were initiated (time 0). At 80 min prior to time 0 basal sampling was conducted, where whole-body glucose flux was traced by infusion of 0.05 μCi/min D-[3-^3H]-glucose (Perkin Elmer), after a priming 5 μCi bolus for 1 min. After the basal period, starting at time 0 D-[3-^3H]-glucose was continuously infused at the rate of 0.2 μCi/min and the infusion of insulin (Humulin, Eli Lilly) was initiated with a bolus of 80 mU/kg/min (10 µl volume for 1 min) then followed by continuous infusion of insulin at the dose of 8 mU/kg/min throughout the assay. Fifty percent dextrose (Hospira) was infused at variable rates (GIR) starting at the same time as the initiation of insulin infusion to maintain euglycemia at the targeted level of 150 mg/dL (8.3 mM). Blood glucose (BG) measurements were taken every ten minutes via tail vein sampling using a Contour glucometer (Bayer). After the mouse reached stable BG and GIR (typically, after 75 min since starting the insulin infusion; for some mice, a long time was required to achieve steady-state) a single bolus of 12 μCi of [1-^14C]-2-deoxy-D-glucose (Perkin Elmer) in 96 μl of saline was administered. Plasma samples (collected from centrifuged blood) for determination of tracers enrichment, glucose level, and insulin concentration were obtained at times −80, −20, −10, 0, and every 10 min starting at 80 min post-insulin (5 min after [1-^14C]-2-deoxy-D-glucose bolus was administered) until the conclusion of the assay at 140 min. Tissue samples were then collected from mice under isofluorane anesthesia from organs of interest (e.g., liver, heart, kidney, white adipose tissue, brown adipose tissue, gastrocnemius, soleus, etc.) for determination of 1-^14C]-2-deoxy-D-glucose tracer uptake. Plasma and tissue samples were processed as described previously. Briefly, plasma samples were deproteinized with Ba(OH)2 and ZnSO4 and dried to eliminate tritiated water. The glucose turnover rate (mg/kg-min) was calculated as the rate of tracer infusion (dpm/min) divided by the corrected plasma glucose specific activity (dpm/mg) per kg body weight of the mouse. Fluctuations from steady-state were accounted for by the use of Steele’s model. Plasma glucose was measured using the Analox GMD9 system (Analox Technologies).
Tissue samples (~30 mg each) were homogenized in 750 µl of 0.5% perchloric acid, neutralized with 10 M KOH, and centrifuged. The supernatant was then used for first measuring the abundance of total [1-^14C] signal (derived from both 1-^14C -2-deoxy-D-glucose, 1-^14C -2-deoxy-D-glucose 6 phosphate) and, following a precipitation step with 0.3 N […] and 0.3 N ZnSO4, for the measuring of non-phosphorylated 1-^14C -2-deoxy-D-glucose. Glycogen was isolated by ethanol precipitation from 30% KOH tissue lysates, as described. Insulin levels in plasma at T0 and T140 were measured using a Stellux ELISA rodent insulin kit (Alpco).

murine islets = experiment: GSIS perifusion of palmitate-treated murine islets; format: cell-based, mouse; conditions: 10 µM for 4 days prior to and during 1 mM palmitate 16 h, washed off during GSIS
In vivo pharmacokinetics = experiment: In vivo pharmacokinetics; parameters: species or system mouse; conditions: for T-half / AUC(0-inf) / Cmax / Oral Bioavailability (AUCp.o./AUCi.v.): 5 mg/kg; for T-half / AUC(0-inf) / Cmax / Oral Bioavailability (AUCp.o./AUCi.v.) / time plasma concentrations exceed those sufficient for induction of SWELL1 signaling activity (>~100 nM): mice; for T-half / AUC(0-inf) / Cmax: plasma; for AUC(0-inf) / Cmax: male, C57/BL6, mouse; for time plasma concentrations exceed those sufficient for induction of SWELL1 signaling activity (>~100 nM): 5 mg/kg i.p. or p.o.
Procedure: Male C57/BL6 mice were used in the study and assessed for a single dose (5 mg/kg) administration. The compounds were prepared in Cremaphor for i.p. and p.o dose routes and in 5% ethanol, 10% Tween-20, and water mix for i.v. route at a final concentration of 1 mg/mL. […] The blood samples were collected in tubes with K2 EDTA anticoagulant and further processed to collect plasma by centrifugation at 1383×g at 5 °C for 10 min. Samples were further processed in LC/MS to determine the concentration of the compounds. Non-compartmental analysis was performed to obtain the PK parameters using the PKPlus software package (Simulation Plus). The area under the plasma concentration-time curve (AUCinf) was calculated from time 0 to infinity where the Cmax is the maximal concentration achieved in plasma and t1/2 is the terminal elimination half-life. Oral bioavailability was calculated as AUCOral/AUCIV*100.

T2D and non-T2D mice = experiment: Metabolic phenotyping: fasting glucose, GTT, ITT
Procedure: as §1
Mice were fasted for 6 h prior to glucose tolerance tests (GTT). Baseline glucose levels at 0 min timepoint (fasting glucose, FG) were measured from a blood sample collected from tail snipping using glucometer (Bayer Healthcare LLC). Either 1 or 0.75 g D-Glucose/kg body weight were injected (i.p.) for lean or HFD mice, respectively and glucose levels were measured at 5 or 7, 15, 30, 60, 90, and 120 min timepoints after injection. For insulin tolerance tests (ITTs), the mice were fasted for 4 h. Similar to GTTs, the baseline blood glucose levels were measured at 0 min timepoint and 15, 30, 60, 90, and 120 min timepoints post-injection (i.p.) of insulin (HumulinR, 1 U/kg bodyweight for lean mice or 1.25 U/kg body weight for HFD mice). […] The collected plasma was then measured for insulin content by using Ultra-Sensitive Mouse Insulin ELISA Kit (Crystal Chem, #90080). All mouse studies were performed in a blinded fashion.

[2] = 12–18 weeks HFD mice, 5 mg/kg/day × 4 days, pre- vs post-treatment

In the case of `CCCCC1(C2CCCC2)Cc2cc(OCCCC(=O)O)c(Cl)c(Cl)c2C1=O` (centres unmarked) [SN-401, 4-((2-butyl-6,7-dichloro-2-cyclopentyl-1-oxo-2,3-dihydro-1H-inden-5-yl)oxy)butanoic acid], the tolerability [1] was “no overt signs of toxicity”, the “glucose incorporation into glycogen in liver, adipose, and skeletal muscle” value (T2D KKAy mice; KKAy mice) was “markedly increased” and the “insulin-stimulated 2-DG uptake into iWAT, gWAT and myocardium” value (T2D KKAy mice; KKAy mice) was “enhanced”. The “glucose-infusion rate (GIR) to maintain euglycemia” value (T2D KKAy mice; KKAy mice, 5 mg/kg i.p. 4 days, vs vehicle) was “higher”, the “reduction of rate of glucose appearance (Ra)” value (T2D KKAy mice; baseline (Basal)) was 40% and the “suppression of rate of glucose appearance (Ra)” value (T2D KKAy mice; during glucose/insulin infusion (Clamp)) was 75%. For the same molecule, the “glucose-stimulated insulin secretion after palmitate” value (murine islets) was “normalized”, the T-half (In vivo pharmacokinetics; Intraperitoneal) was 2.056 h and the T-half (In vivo pharmacokinetics; Intravenous) was 1.428 h. For the same molecule, the T-half (In vivo pharmacokinetics; Oral) was 2.585 h, the “PK in adipose tissue” value (In vivo pharmacokinetics; iWAT, 5 mg/kg i.p. and p.o.) was “closely tracks serum concentrations” and the AUC(0-inf) (In vivo pharmacokinetics; ip, Intraperitoneal) was 23000 ng·h/mL. It also gave a Cmax (In vivo pharmacokinetics; ip, Intraperitoneal) of 4370 ng/mL, an AUC(0-inf) (In vivo pharmacokinetics; Intravenous) of 5960 ng·h/mL and a Cmax (In vivo pharmacokinetics; Intravenous) of 5440 ng/mL. For the same molecule, the AUC(0-inf) (In vivo pharmacokinetics; Oral) was 4680 ng·h/mL, the Cmax (In vivo pharmacokinetics; Oral) was 781 ng/mL and the “Oral Bioavailability (AUCp.o./AUCi.v.)” value (In vivo pharmacokinetics) was 79%. For the same molecule, the “time plasma concentrations exceed those sufficient for induction of SWELL1 signaling activity (>~100 nM)” value (In vivo pharmacokinetics) was 8 to 12 h, the “fasting blood glucose (FG), glucose tolerance (GTT), and insulin tolerance (ITT)” value (T2D and non-T2D mice; HFD-fed and KKAy T2D mice, 5 mg/kg i.p. 4–10 days) was “improved” and the “hypoglycemia in control strain” value (T2D and non-T2D mice; KKAa parental strain, 5 mg/kg × 4–10 days) was “does not cause hypoglycemia”. For the same molecule, the “FG, GTT, and ITT compared to vehicle” value (T2D and non-T2D mice; lean, non-T2D, glucose-tolerant mice) was “similar” and the “FG, GTT, and ITT compared to vehicle” value (T2D and non-T2D mice; same mice after 16 weeks of HFD-feeding, 4 days treatment) was “marked improvements”.
Work on `CCCCC1(C2CCCC2)Cc2cc(OCCCCCC(=O)O)c(Cl)c(Cl)c2C1=O` (centres unmarked) [SN-406, 6-((2-butyl-6,7-dichloro-2-cyclopentyl-1-oxo-2,3-dihydro-1H-inden-5-yl)oxy)hexanoic acid] yielded a T-half (In vivo pharmacokinetics; Intraperitoneal) of 1.809 h, a T-half (In vivo pharmacokinetics; Intravenous) of 0.7689 h and a T-half (In vivo pharmacokinetics; Oral) of 2.058 h. The AUC(0-inf) (In vivo pharmacokinetics; ip, Intraperitoneal) was 18200 ng·h/mL, the Cmax (In vivo pharmacokinetics; ip, Intraperitoneal) was 4300 ng/mL and the AUC(0-inf) (In vivo pharmacokinetics; Intravenous) was 6530 ng·h/mL. For the same molecule, the Cmax (In vivo pharmacokinetics; Intravenous) was 15100 ng/mL, the AUC(0-inf) (In vivo pharmacokinetics; Oral) was 3130 ng·h/mL and the Cmax (In vivo pharmacokinetics; Oral) was 661 ng/mL. The “Oral Bioavailability (AUCp.o./AUCi.v.)” value (In vivo pharmacokinetics) was 48%, the “time plasma concentrations exceed those sufficient for induction of SWELL1 signaling activity (>~100 nM)” value (In vivo pharmacokinetics) was 8 to 12 h and the fasting blood glucose (T2D and non-T2D mice; [2]) was “markedly reduced”. For the same molecule, the glucose tolerance (T2D and non-T2D mice; [2]) was “improved”, the “insulin sensitivity based on HOMA-IR” value (T2D and non-T2D mice; HFD-T2D mice, compared to Inactive 1) was “trend toward improved insulin sensitivity” and the glucose tolerance (T2D and non-T2D mice; HFD-T2D mice, separate experiment, compared to Inactive 1) was “significantly improved”.
